Like-named read-outs stand apart in the source and are kept apart here.
What was measured:
Assay type in all cases: biochemical
Aurora-1 (Aurora B) = Aurora-1 (Aurora B) (Homo sapiens, UniProt Q96GD4); assay: Aurora-1 (Aurora B) inhibition assay (radiometric)
Description: An assay buffer solution was prepared which consisted of 25 mM HEPES (pH 7.5), 10 mM MgCl2, 0.1% BSA and 10% glycerol. […] To 22 μL of the Aurora-B solution, in a 96-well plate, was added 2 μl of a compound stock solution in DMSO and the mixture allowed to equilibrate for 10 minutes at 25° C. The enzyme reaction was initiated by the addition of 16 μl stock [γ-^33P]-ATP solution (˜20 nCi/μL) prepared in assay buffer, to a final assay concentration of 800 μM. The reaction was stopped after 3 hours by the addition of 16 μL 500 mM phosphoric acid and the levels of ^33P incorporation into the peptide substrate were determined by the following method.
A phosphocellulose 96-well plate (Millipore, Cat no. MAPHNOB50) was pre-treated with 100 μL of a 100 mM phosphoric acid prior to the addition of the enzyme reaction mixture (40 μL). The solution was left to soak on to the phosphocellulose membrane for 30 minutes and the plate subsequently washed four times with 200 μL of a 100 mM phosphoric acid. […] Levels of non-enzyme catalyzed background radioactivity were determined by adding 16 μL of the 500 mM phosphoric acid to control wells, containing all assay components (which acts to denature the enzyme), prior to the addition of the [γ-^33P]-ATP solution. Levels of enzyme catalyzed ^33P incorporation were calculated by subtracting mean background counts from those measured at each inhibitor concentration. […] Ki values were calculated from initial rate data by non-linear regression using the Prism software package (Prism 3.0, Graphpad Software, San Diego, Calif.).

FLT-3 = molecular target: T1, FLT-3 (Homo sapiens, UniProt P36888); assay: FLT-3 inhibition assay, radiometric filter-binding; conditions: 90 μM ATP
T1 sequence (P36888 27-993): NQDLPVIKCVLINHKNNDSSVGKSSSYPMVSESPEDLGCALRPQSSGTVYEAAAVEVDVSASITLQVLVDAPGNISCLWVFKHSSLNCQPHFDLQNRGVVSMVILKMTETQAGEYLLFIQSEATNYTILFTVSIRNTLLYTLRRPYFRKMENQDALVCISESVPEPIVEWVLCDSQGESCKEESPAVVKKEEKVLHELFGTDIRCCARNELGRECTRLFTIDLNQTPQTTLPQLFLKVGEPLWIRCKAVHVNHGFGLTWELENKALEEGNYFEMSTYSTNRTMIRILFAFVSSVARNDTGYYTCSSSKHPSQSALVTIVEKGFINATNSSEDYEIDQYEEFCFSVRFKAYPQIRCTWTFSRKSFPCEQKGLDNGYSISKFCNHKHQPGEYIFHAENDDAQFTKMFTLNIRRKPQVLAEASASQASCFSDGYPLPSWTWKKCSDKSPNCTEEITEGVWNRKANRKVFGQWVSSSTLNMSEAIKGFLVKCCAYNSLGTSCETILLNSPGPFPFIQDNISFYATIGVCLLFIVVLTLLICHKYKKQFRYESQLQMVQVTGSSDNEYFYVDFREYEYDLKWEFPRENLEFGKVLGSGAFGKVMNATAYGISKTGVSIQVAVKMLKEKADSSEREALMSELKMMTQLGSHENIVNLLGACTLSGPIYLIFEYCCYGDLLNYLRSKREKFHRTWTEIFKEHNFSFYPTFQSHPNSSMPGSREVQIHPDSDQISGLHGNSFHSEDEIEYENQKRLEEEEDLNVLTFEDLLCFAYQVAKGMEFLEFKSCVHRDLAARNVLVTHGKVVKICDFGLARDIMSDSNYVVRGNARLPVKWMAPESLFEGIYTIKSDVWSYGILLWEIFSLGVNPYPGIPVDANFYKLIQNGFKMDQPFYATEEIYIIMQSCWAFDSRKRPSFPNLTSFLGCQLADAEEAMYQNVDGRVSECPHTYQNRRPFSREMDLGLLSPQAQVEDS
Description: This assay monitors the ^33P incorporation into a substrate poly(Glu, Tyr) 4:1 (pE4Y). Reactions were carried out in a solution containing 100 mM HEPES (pH 7.5), 10 mM MgCl2, 25 mM NaCl, 1 mM DTT, 0.01% BSA and 2.5% DMSO. Final substrate concentrations in the assay were 90 μM ATP and 0.5 mg/ml pE4Y (both from Sigma Chemicals, St Louis, Mo.). The final concentration of a compound of the present invention was generally between 0.01 and 5 μM. Typically, a 12-point titration was conducted by preparing serial dilutions from 10 mM DMSO stock of test compound. Reactions were carried out at room temperature.
Two assay solutions were prepared. Solution 1 contains 100 mM HEPES (pH 7.5), 10 mM MgCl2, 25 mM NaCl, 1 mg/ml pE4Y and […] (containing 0.3 mCi of [γ-33^P]ATP for each reaction). Solution 2 contains 100 mM HEPES (pH 7.5), 10 mM MgCl2, 25 mM NaCl, 2 mM DTT, 0.02% BSA and 3 nM FLT-3. The assay was run on a 96 well plate by mixing 50 μl each of Solution 1 and […] of the compounds of the present invention. The reaction was initiated with Solution 2. […] All of the reaction volume was then transferred to a filter plate and washed with 5% TCA by a Harvester 9600 from TOMTEC (Hamden, Conn.). The amount of ^33P incorporation into pE4y was analyzed by a Packard Top Count Microplate Scintillation Counter (Meriden, Conn.). The data was fitted using Prism software to get an IC50 or Ki.

FGFR1 = FGFR1 (Homo sapiens, UniProt P11362); assay: FGFR1 inhibition screen; conditions: ATP at or close to Km
Chain of FGFR1 (P11362 22-822, species assumed): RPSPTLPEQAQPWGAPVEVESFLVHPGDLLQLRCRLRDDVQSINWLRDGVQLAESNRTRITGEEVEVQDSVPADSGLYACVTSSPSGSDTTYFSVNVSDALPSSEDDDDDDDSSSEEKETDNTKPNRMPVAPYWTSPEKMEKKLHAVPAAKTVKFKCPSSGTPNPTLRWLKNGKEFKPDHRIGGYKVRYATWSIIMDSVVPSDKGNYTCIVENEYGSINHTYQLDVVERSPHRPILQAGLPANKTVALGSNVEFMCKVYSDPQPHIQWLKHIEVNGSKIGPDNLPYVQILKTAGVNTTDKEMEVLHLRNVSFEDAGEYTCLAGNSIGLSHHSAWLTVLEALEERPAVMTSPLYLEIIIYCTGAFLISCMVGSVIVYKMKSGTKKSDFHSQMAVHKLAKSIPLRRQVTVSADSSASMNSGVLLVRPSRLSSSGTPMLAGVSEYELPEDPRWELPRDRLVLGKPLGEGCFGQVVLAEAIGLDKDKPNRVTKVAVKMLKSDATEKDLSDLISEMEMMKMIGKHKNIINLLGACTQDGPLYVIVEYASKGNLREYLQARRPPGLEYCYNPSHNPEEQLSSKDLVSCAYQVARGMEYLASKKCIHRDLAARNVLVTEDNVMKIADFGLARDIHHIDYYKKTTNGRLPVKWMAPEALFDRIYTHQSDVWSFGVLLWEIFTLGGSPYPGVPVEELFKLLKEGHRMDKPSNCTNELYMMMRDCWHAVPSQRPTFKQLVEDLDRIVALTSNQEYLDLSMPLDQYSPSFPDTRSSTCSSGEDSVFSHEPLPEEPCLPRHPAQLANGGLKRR
Excerpt: (§1) Compound(s) were screened for their ability to inhibit Arg (Abl-2), FGFR1, MLK1, Tie2, and TrkA using screening methods known to one of ordinary skill in the art. All of the above enzymes were screened with ATP concentrations at or close to the Km for ATP.

Arg (Abl-2) = Arg (Abl-2) (Homo sapiens, UniProt P42684); assay: Arg (Abl-2) inhibition screen; conditions: ATP at or close to Km
Chain of Arg (Abl-2) (P42684 whole entry, species assumed): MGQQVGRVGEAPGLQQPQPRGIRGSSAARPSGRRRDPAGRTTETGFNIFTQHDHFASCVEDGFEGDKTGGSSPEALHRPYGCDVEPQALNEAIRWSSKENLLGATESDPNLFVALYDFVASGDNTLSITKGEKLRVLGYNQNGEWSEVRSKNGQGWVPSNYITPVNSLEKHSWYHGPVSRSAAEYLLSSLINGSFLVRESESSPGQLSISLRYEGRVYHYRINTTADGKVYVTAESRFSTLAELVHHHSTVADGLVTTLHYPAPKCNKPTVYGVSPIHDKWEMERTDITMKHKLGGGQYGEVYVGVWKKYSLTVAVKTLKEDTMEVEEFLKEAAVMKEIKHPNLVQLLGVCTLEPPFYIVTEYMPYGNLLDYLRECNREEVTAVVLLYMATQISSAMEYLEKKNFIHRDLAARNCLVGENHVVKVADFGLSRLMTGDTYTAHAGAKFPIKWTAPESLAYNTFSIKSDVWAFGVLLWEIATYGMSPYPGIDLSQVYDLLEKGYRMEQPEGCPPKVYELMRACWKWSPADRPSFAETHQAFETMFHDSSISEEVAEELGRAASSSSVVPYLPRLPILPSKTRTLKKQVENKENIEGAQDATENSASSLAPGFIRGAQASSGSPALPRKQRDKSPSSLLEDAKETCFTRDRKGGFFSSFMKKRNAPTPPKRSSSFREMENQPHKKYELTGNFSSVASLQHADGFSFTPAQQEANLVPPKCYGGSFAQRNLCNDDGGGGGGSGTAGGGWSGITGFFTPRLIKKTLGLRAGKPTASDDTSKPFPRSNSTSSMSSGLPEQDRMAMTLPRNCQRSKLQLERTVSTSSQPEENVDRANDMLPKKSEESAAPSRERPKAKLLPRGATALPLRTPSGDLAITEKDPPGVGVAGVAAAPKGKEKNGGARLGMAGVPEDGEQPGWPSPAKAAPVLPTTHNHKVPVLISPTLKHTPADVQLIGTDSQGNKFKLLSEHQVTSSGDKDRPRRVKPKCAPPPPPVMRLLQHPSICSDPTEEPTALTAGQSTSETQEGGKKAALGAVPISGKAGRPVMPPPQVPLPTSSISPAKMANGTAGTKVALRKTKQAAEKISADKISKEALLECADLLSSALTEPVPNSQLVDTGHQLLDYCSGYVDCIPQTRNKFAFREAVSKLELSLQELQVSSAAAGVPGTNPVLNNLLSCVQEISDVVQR
Excerpt: as §1

[1] = molecular target: N-terminally truncated (Δ 27) Abl kinase (Homo sapiens, UniProt P00519); assay: Abl kinase activity inhibition assay, coupled enzyme
Chain of N-terminally truncated (Δ 27) Abl kinase (P00519 28-1130 limits assumed, stated change not applied): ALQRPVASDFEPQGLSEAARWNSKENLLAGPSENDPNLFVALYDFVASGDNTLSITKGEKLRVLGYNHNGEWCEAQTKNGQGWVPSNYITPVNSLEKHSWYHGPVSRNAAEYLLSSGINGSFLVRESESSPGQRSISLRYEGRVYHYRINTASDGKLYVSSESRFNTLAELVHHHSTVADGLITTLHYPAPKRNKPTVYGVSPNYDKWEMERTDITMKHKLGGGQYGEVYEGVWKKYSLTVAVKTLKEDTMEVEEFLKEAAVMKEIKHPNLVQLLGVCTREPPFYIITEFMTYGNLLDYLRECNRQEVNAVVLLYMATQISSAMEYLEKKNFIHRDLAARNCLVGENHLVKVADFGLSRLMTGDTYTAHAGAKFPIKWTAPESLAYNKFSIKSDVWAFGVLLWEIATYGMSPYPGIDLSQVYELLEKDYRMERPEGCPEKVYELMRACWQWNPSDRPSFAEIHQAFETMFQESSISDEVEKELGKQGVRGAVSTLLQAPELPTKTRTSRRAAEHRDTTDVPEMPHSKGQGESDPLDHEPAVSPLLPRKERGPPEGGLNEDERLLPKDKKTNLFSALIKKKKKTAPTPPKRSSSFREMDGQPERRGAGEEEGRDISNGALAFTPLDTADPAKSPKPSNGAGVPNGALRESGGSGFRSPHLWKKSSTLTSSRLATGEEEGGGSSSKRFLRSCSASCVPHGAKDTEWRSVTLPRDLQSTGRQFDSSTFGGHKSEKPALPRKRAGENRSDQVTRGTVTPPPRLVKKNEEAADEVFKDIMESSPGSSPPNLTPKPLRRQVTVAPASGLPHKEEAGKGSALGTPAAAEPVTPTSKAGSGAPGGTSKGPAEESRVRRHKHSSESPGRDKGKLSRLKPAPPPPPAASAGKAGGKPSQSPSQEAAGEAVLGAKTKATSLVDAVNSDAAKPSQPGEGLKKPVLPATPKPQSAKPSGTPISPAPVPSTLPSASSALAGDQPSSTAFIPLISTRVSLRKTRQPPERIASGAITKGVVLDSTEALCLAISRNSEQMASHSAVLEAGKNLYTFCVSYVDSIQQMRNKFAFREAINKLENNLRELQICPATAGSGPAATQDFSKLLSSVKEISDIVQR
Description: Reactions were carried out in a solution containing 100 mM HEPES (pH 7.5), 10 mM MgCl2, 25 mM NaCl, 300 μM NADH, 1 mM DTT and 3% DMSO. […] Final concentrations of the components of the coupled enzyme system were 2.5 mM phosphoenolpyruvate, 200 μM NADH, 60 μg/ml pyruvate kinase and 20 μg/ml lactate dehydrogenase.
An assay stock buffer solution was prepared containing all of the reagents listed above with the exception of ATP and the test compound of interest. […] Rates of reaction were obtained using a Molecular Devices Spectramax plate reader (Sunnyvale, Calif.) over 10 min at 30° C. The Ki values were determined from the residual rate data as a function of inhibitor concentration using nonlinear regression (Prism 3.0, Graphpad Software, San Diego, Calif.).

[2] = 800 μM ATP, read-out: Aurora B Ki
[3] = Table 6, introduced as Ki values

Chain of Aurora-1 (Aurora B) (Q96GD4 whole entry): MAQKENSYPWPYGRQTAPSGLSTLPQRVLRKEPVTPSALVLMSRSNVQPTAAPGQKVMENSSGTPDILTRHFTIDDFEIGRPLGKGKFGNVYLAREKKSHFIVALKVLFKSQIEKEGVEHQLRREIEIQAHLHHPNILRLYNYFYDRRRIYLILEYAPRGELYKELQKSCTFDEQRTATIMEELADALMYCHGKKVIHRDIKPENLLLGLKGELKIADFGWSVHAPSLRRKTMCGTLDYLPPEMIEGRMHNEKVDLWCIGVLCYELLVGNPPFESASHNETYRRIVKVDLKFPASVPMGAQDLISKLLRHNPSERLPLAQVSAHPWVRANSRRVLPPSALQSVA

SMILES | Ki (Aurora-1 (Aurora B); [2]) [µM] | Ki (FLT-3) [µM] | Ki (Aurora-1 (Aurora B)) [µM] | IC50 (FGFR1; Table 5) [µM] | IC50 (Arg (Abl-2); Table 5) [µM] | Ki [1] [µM] | IC50 (FGFR1; [3]) [µM] | IC50 (Arg (Abl-2); [3]) [µM]
Cc1cc(Nc2cc(N3CC(O)(C4CC4)C3)nc(Sc3ccc(NC(=O)C4CC4)cc3F)n2)[nH]n1 [Compound I-11, N-(4-((4-(3-methyl-1H-pyrazol-5-ylamino)-6-(3-cyclopropyl-3-hydroxyazetidin-1-yl)pyrimidin-2-yl)sulfanyl)-3-fluorophenyl)cyclopropanecarboxamide] | 0.009 | 0.02 | – | – | – | – | – | –
Cc1cc(Nc2cc(N3CC(F)(C4CC4)C3)nc(Sc3ccc(NC(=O)C4CC4)cc3F)n2)n[nH]1 [Compound I-18] | – | 0.16 | 0.018 | 0.022 | 0.053 | – | – | –
Cc1cc(Nc2cc(N3CC(O)(C4CC4)C3)nc(Sc3ccc(NC(=O)C4CC4(F)F)cc3)n2)[nH]n1 (stereo not drawn) [Compound I-12] | 0.003 | 0.015 | – | – | – | – | – | –
Cc1cc(Nc2cc(N3CC(F)(C4CC4)C3)nc(Sc3ccc(NC(=O)CC4CC4)cc3)n2)[nH]n1 [Compound I-19] | 0.021 | 0.14 | – | 0.035 | 0.13 | – | – | –
CCC(=O)Nc1ccc(Sc2nc(Nc3cc(C)n[nH]3)cc(N3CC(O)(C(C)C)C3)n2)cc1 [Compound I-5] | 0.014 | 0.021 | – | – | – | – | – | –
Cc1cc(Nc2cc(N3CC(F)(C4CC4)C3)nc(Sc3ccc(NC(=O)C4CC4(F)F)cc3)n2)[nH]n1 (stereo not drawn) [Compound I-20] | 0.018 | 0.072 | – | – | – | – | – | –
Cc1cc(Nc2cc(N3CC(O)(C4CC4)C3)nc(Sc3ccc(NC(=O)C4CC4)cc3)n2)n[nH]1 [Compound I-8] | 0.0071 | 0.028 | – | – | – | 0.03 | – | –
CCC(=O)Nc1ccc(Sc2nc(Nc3cc(C4CC4)[nH]n3)cc(N3CC(O)(C4CC4)C3)n2)cc1 [Compound I-7] | < 0.006 | 0.023 | – | – | – | – | – | –
Cc1cc(Nc2cc(N3CC(F)(C4CC4)C3)nc(Sc3ccc(NC(=O)CC(F)(F)F)cc3)n2)[nH]n1 [Compound I-14, N-(4-(4-(3-methyl-1H-pyrazol-5-ylamino)-6-(3-cyclopropyl-3-fluoroazetidin-1-yl)pyrimidin-2-ylthio)phenyl)-3,3,3-trifluoropropanamide] | 0.0068 | 0.065 | – | 0.121 | 0.014 | 0.023 | 0.065 | 0.0033
Cc1cc(Nc2cc(N3CC(F)(C4CC4)C3)nc(Sc3ccc(NC(=O)C4CC4)cc3)n2)n[nH]1 [Compound I-13] | 0.022 | 0.043 | – | – | – | 0.088 | – | –
Cc1cc(Nc2cc(N3CC(F)(C4CC4)C3)nc(Sc3ccc(NC(=O)CC(F)(F)F)nc3)n2)[nH]n1 [Compound I-21, N-(5-(4-(3-methyl-1H-pyrazol-5-ylamino)-6-(3-cyclopropyl-3-fluoroazetidin-1-yl)pyrimidin-2-ylthio)pyridin-2-yl)-3,3,3-trifluoropropanamide] | 0.0095 | 0.12 | – | – | – | – | – | –
CCC(=O)Nc1ccc(Sc2nc(Nc3cc(C)n[nH]3)cc(N3CC(O)(C4CCCC4)C3)n2)cc1 [Compound I-3] | 0.0065 | 0.026 | – | – | – | 0.03 | – | –
O=C(Nc1ccc(Sc2nc(Nc3cc(C4CC4)[nH]n3)cc(N3CC(O)(C4CC4)C3)n2)cc1)C1CC1 [Compound I-10] | 0.007 | 0.0025 | – | – | – | – | – | –
Cc1cc(Nc2cc(N3CC(O)(C4CC4)C3)nc(Sc3ccc(NC(=O)C4CCCC4)cc3)n2)[nH]n1 [Compound I-9, N-(4-((4-(3-methyl-1H-pyrazol-5-ylamino)-6-(3-cyclopropyl-3-hydroxyazetidin-1-yl)pyrimidin-2-yl)sulfanyl)phenyl)cyclopentanecarboxamide] | < 0.006 | 0.11 | – | – | – | – | – | –
CCC(=O)Nc1ccc(Sc2nc(Nc3cc(C)n[nH]3)cc(N3CC(O)(C4CC4)C3)n2)cc1 [Compound I-2] | 0.0076 | 0.036 | – | – | – | 0.064 | – | –
CCC(=O)Nc1ccc(Sc2nc(Nc3cc(C)n[nH]3)cc(N3CC(O)(C(C)CC)C3)n2)cc1 (stereo not drawn) [Compound I-6] | – | 0.048 | 0.0062 | – | – | – | – | –
